Test [1] has as its target T1, TAS1R1-12H-372A/TAS1R3 -757R (Homo sapiens, UniProt Q7RTX0+Q7RTX1, C757R/Q12H).
T1 construct: expressed in transfected cells; host or cells: HEK293
T1 sequence (Q7RTX1 21-841): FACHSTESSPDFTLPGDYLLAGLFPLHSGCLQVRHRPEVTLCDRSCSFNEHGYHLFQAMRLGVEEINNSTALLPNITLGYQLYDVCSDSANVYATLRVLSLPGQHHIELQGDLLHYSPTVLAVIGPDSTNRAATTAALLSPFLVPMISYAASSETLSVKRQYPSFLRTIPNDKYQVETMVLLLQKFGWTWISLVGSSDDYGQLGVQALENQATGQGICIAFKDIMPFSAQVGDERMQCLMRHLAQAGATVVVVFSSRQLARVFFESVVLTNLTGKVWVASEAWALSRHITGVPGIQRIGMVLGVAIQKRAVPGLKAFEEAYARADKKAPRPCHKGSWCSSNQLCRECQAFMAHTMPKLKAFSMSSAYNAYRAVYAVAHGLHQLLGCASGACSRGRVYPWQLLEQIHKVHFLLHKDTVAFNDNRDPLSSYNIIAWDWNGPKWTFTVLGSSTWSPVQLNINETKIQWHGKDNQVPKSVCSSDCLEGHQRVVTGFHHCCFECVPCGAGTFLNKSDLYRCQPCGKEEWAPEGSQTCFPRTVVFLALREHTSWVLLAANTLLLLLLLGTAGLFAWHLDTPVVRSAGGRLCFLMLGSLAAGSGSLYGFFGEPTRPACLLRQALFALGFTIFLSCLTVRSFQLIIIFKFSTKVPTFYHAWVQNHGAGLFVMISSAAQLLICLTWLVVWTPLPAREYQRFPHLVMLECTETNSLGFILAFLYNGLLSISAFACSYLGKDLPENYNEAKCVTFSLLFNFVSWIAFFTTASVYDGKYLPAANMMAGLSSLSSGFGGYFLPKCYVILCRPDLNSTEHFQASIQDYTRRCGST
T1 sequence (Q7RTX0 21-852 C757R): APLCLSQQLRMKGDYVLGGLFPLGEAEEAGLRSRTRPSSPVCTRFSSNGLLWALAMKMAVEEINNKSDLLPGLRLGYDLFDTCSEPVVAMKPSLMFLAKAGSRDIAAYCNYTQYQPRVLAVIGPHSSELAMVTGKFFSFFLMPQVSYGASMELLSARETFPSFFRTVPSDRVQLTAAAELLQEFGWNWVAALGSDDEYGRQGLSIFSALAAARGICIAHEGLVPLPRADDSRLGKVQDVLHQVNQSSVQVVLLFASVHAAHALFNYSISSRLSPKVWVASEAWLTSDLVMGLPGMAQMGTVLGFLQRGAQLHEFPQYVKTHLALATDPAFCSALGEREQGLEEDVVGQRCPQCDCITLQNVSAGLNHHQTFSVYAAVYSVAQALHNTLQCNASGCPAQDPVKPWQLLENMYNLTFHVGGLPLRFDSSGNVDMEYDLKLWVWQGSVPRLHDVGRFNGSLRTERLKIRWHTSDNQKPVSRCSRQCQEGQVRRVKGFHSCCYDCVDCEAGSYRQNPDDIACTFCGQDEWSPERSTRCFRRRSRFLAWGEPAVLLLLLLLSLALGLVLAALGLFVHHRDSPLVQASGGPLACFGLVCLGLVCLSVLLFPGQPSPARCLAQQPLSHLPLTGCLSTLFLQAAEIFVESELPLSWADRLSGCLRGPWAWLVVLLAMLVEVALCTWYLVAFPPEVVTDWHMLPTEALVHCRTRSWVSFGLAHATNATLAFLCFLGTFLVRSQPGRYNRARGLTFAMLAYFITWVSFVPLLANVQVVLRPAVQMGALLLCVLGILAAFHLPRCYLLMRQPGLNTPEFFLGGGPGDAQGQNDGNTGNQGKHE
Description: Ca2+ imaging in HEK293 cells, Q12H amino acid substitution of TAS1R1. The format is cell-based. The conditions noted are these: vs. TAS1R1-12Q-372A/TAS1R3-757R; Figure S3. From the text:
Intronless human TAS1Rs and Gαl6 expression constructs were generated in the pEF-DEST51 Gateway vector (Invitrogen) by genomic DNA-based methods. To subclone each gene into the vector, a Kozak cassette was introduced at the 5′ end before the start codon. Gαl6 chimeras were generated by PCR with mutagenic primers. The carboxyl-terminal tail of Gαl6, five-residue (EINLL) was replaced by its counterpart from Gαi3 (ECGLY; Gα16-i3), Gαgust (DCGLF; Gα16-gust), and Gα16-gust44 was generated as described. The integrity of all DNA constructs was confirmed by DNA sequencing. Point mutations in TAS1Rs were made using the same overlapping PCR strategy with mutagenic primers. […]
HEK293 cells were cultured at 37°C under a humidified atmosphere containing 5% CO2 in Dulbecco's modified Eagle's medium supplemented with 10% fetal bovine serum. […] The transfection efficiencies were estimated by visualizing DsRed fluorescence (data not shown) or by immunocytochemistry of TAS1R3, and were typically 50∼55% (Figure S4). […]
Another imaging system, FlexStation II (Molecular Devices) was used for TAS1R mutant analysis. […] Fluorescence changes (excitation at 485 nm, emission at 525 nm, and cutoff at 515 nm) were monitored at 2 sec intervals; 50 µl of HBSS supplemented with 2×tastants were added at 30 sec, and scanning was continued for an additional 120 sec. […]

Another test deals with 254 Japanese subjects. On the set-up: method as in PMID 11839608. The conditions noted are these: humans; cited from earlier work.

Molecules are shown by their SMILES.

With `N[C@@H](CCC(=O)O)C(=O)[O-].[Na+]` [MSG, monosodium glutamate], the “effect of the Q12H amino acid mutation of TAS1R1 on responses” value in test [1] is given as “did not affect”. Moreover, the “difference of taste thresholds between taster and hypotaster groups” value in the test on 254 Japanese subjects is on record as “about 5 fold”.

The values are drawn from publication PMC2725291, “Genetic and Molecular Basis of Individual Differences in Human Umami Taste Perception” (PLoS ONE, 2009).
